Laboratory results from patent publication US11338021B2, “Combination therapies” (ENZYMATICA AB, priority 2015, dated 2022).
“Also recorded” adds a separate entry of the source.

How the values were obtained:
Format in all cases: cell-based
[1] = tested on: biofilms using a combination of Streptococcus pneumonia and Streptococcus mitis; experiment: Dispersal of pre-grown model (super) biofilm in microtiter plate, crystal violet staining, absorbance at 492 nm; settings: for biofilm disruption by antibiotic and cod trypsin combination compared with antibiotic alone: FIG. 1, Student's t test; for effect of antibiotic alone on biofilm formation: biofilms grown for 4 hours; for disruption of super biofilm by cod trypsins alone: FIGS. 4-6, compared with placebo, treated for 2 minutes
Protocol: Effects of combination of cod trypsins with selected antibiotics on biofilm dispersal. […] Biofilms using a combination of Streptococcus pneumonia and Streptococcus mitis were grown in a microtiter plate and used as a model for biofilm. The biofilm was treated with an antibiotic or a combination of the antibiotics and cod trypsins. The biofilms were stained with crystal violet followed by dissolution with acetic acid. Biofilm formation was measured as absorbance at 492 nm, and normalized to untreated biofilm. […] P values above bars indicate significance of difference between the two treatments as evaluated by Student's t test.
Effects of combination of cod trypsins with selected antibiotics on biofilm dispersal. […] Biofilms using a combination of Streptococcus pneumonia and Streptococcus mitis were grown in a microtiter plate and used as a model biofilm. The biofilm was treated with cod trypsins, an antibiotic, or a combination of the two. The biofilms were stained with crystal violet followed by dissolution with acetic acid. Biofilm formation was measured as absorbance at 492 nm, and normalized to untreated biofilm. […] P values above bars indicate significance of effects as evaluated by ANOVA analysis.
Each column represents one type of treatment or treatment combination, with the rows representing decreasing concentrations from top to bottom. After treatment biofilms are stained with crystal violet, with a darker colour representing more remaining biofilm. […] The lowest row represents blanks, where the first six holes represent untreated biofilm and the next six represent no biofilm.
Effects of cod trypsins on the super biofilm presented visually after biofilm staining with crystal violet. […] The super biofilm with a combination of Streptococcus pneumonia and Streptococcus mitis were grown in a microtiter plate. The biofilm was treated with cod trypsins or placebo for 2 minutes and the wells were stained to measure the presence (black wells) of biofilm or its absence (clear wells) after treatment.
After treatment the biofilms were stained with crystal violet, with a darker colour representing more remaining biofilm.
Effects of cod trypsins on the super biofilm as measured by spectrophotometry after crystal violet staining and dissolution in acetic acid. […] Biofilms using a combination of Streptococcus pneumonia and Streptococcus mitis were grown in a microtiter plate. The biofilm was treated with cod trypsins or placebo and the wells were stained with crystal violet followed by dissolution with acetic acid. Biofilm formation was measured as absorbance at 492 nm, and normalized to untreated biofilm. […] Data is presented as a bar-plot with the error bars indicating the standard error of the mean (SEM). Data for dilutions of placebo and cod trypsins treated bacterial biofilms are placed next to each other. The Log reduction of biofilm formation of Penzyme compared to that of placebo in the same dilution is above the bars, as is the level of significance indicated by asterisks (*), where * represents a P of <0.05, ** a P<0.01 and *** a P<0.001. Students T-test was used to calculate the significance.
Log reduction of super biofilm by cod trypsins at different concentrations. […] Biofilms using a combination of Streptococcus pneumonia and Streptococcus mitis were grown in a microtiter plate. The biofilm was treated with cod trypsins or placebo and the wells were stained with crystal violet followed by dissolution with acetic acid. Biofilm formation was measured as absorbance at 492 nm, and the reduction compared to placebo treated biofilm on a logarithmic scale.
Biofilms using a combination of Streptococcus pneumonia and Streptococcus mitis were grown in a microtiter plate. The biofilm was treated with an antibiotic or a combination of the antibiotics and cod trypsins. The biofilms were stained with crystal violet followed by dissolution with acetic acid.

[2] = tested on: biofilm forming bacteria Streptococcus pneumonia and Streptococcus mitis; experiment: Pre-treatment of planktonic bacteria before biofilm formation (4 hours), crystal violet staining, absorbance at 492 nm; settings: FIGS. 7-8, compared with placebo, biofilms grown 4 hours, normalized to untreated biofilm
Protocol: Effects of cod trypsins pre-treatment on biofilm formation. […] Biofilms using a combination of Streptococcus pneumonia and Streptococcus mitis were grown in a microtiter plate after being briefly treated with cod trypsins or placebo. After allowing the biofilms to grow for 4 hours the wells were stained with crystal violet followed by dissolution with acetic acid. Biofilm formation was measured as absorbance at 492 nm, and normalized to untreated biofilm. […] Data is presented as a boxplot where the top of the rectangle indicates the third quartile, a horizontal line near the middle of the rectangle indicates the median, and the bottom of the rectangle indicates the first quartile. A vertical line extends from the top of the rectangle to indicate the maximum value, and another vertical line extends from the bottom of the rectangle to indicate the minimum value.
Effects of cod trypsin pre-treatment on biofilm formation. […] Biofilms using a combination of Streptococcus pneumonia and Streptococcus mitis were grown in a microtiter plate after being treated with cod trypsins or placebo. After allowing the biofilms to grow for 4 hours the wells were stained with crystal violet followed by dissolution with acetic acid. Biofilm formation was measured as absorbance at 492 nm, and normalized to untreated biofilm. […] Statistical significance of the difference, as evaluated by Student's t test, is indicated by symbols above the boxes where n.s. is p >0.05, * is p<0.05, ** p<0.01, and *** p<0.001.
After allowing the biofilms to grow for 4 hours the wells were stained with crystal violet followed by dissolution with acetic acid. Biofilm formation was measured as absorbance at 492 nm, and normalized to untreated biofilm. […] Cod trypsins prevent biofilm formation in a concentration dependent manner. […] Biofilm formation was measured as absorbance at 492 nm, and normalized to untreated biofilm. […] Statistical significance of the difference, as evaluated by Student's t test, is indicated by symbols above the boxes where n.s. is p >0.05, * is p<0.05, ** p<0.01, and *** p<0.001.

bacteria = experiment: Lethality of cod trypsin to bacteria (statement, no method given)
[3] = absorbance at 492 nm normalized to untreated biofilm
[4] = FIG. 3, 96 well plate image, crystal violet

CC[C@H]1OC(=O)[C@H](C)[C@@H](O[C@H]2C[C@@](C)(OC)[C@@H](O)[C@H](C)O2)[C@H](C)[C@@H](O[C@@H]2O[C@H](C)C[C@H](N(C)C)[C@H]2O)[C@](C)(O)C[C@@H](C)C(=O)[C@H](C)[C@@H](O)[C@]1(C)O [erythromycin]
biofilm disruption by antibiotic and cod trypsin combination compared with antibiotic alone [1, 3]: more effective in disrupting bacterial biofilm than antibiotics alone

CN[C@H](CC(C)C)C(=O)N[C@H]1C(=O)N[C@@H](CC(N)=O)C(=O)N[C@H]2C(=O)N[C@H]3C(=O)N[C@H](C(=O)N[C@H](C(=O)O)c4cc(O)cc(O)c4-c4cc3ccc4O)[C@H](O)c3ccc(c(Cl)c3)Oc3cc2cc(c3O[C@@H]2O[C@H](CO)[C@@H](O)[C@H](O)[C@H]2O[C@H]2C[C@](C)(N)[C@H](O)[C@H](C)O2)Oc2ccc(cc2Cl)[C@H]1O [vancomycin]
biofilm disruption by antibiotic and cod trypsin combination compared with antibiotic alone [1, 3]: not to have significantly increased efficacy against the model biofilm when combined with trypsin
effect of antibiotic in combination with cod trypsin on efficacy of cod trypsin [1, 4]: can increase the efficacy of cod trypsin
effect of antibiotic alone on biofilm formation [1, 4]: the drug alone appears to increase biofilm formation
effect of antibiotic alone on biofilm formation ([1]; FIG. 3, 96 well plate image, crystal violet, listed as Vancomycin): may increase biofilm formation

Cc1onc(-c2ccccc2)c1C(=O)N[C@@H]1C(=O)N2[C@@H]1SC(C)(C)[C@@H]2C(=O)O [oxacillin]
biofilm disruption by antibiotic and cod trypsin combination compared with antibiotic alone [1, 3]: more effective in disrupting bacterial biofilm than antibiotics alone

CO/N=C(\C(=O)N[C@@H]1C(=O)N2C(C(=O)O)=C(COC(C)=O)CS[C@H]12)c1csc(N)n1 [cefotaxime]
biofilm disruption by antibiotic and cod trypsin combination compared with antibiotic alone [1, 3]: more effective in disrupting bacterial biofilm than antibiotics alone
biofilm disruption by combination of cod trypsin and antibiotic compared with either alone ([1]; FIG. 2, absorbance at 492 nm normalized to untreated biofilm, ANOVA): more effective in disrupting bacterial biofilm than either cod trypsins or antibiotics alone

B1: cod trypsin: trypsin from Atlantic cod (Gadus morhua), a polypeptide having serine protease activity (protein, listed as Gadus morhua)
chain: IVGGYECTKHSQAHQVSLNSGYHFCGGSLVSKDWVVSAAHCYKSVLRVRLGEHHIRVNEGTEQYISSSSVIRHPNYSSYNINNDIMLIKLTKPATLNQYVHAVALPTECAADATMCTVSGWGNTMSSVADGDKLQCLSLPILSHADCANSYPGMITQSMFCAGYLEGGKDSCQGDSGGPVVCNGVLQGVVSWGYGCAERDHPGVYAKVCVLSGWVRDTMANY
time in which cod trypsins disrupt bacterial biofilm ([1]; FIG. 6, at concentrations 8 U/g or higher): less than 2 minutes
concentrations at which cod trypsins are very effective in disrupting bacterial biofilm ([1]; FIG. 6, log reduction compared to placebo treated biofilm): ≥ 8 U/g
disruption of super biofilm by cod trypsins alone [1]: effective at removing biofilms at the higher concentration
disruption of super biofilm by cod trypsins alone ([1]; listed as cod trypsins): very effective in disrupting the super biofilm; also recorded: very effective in disrupting bacterial biofilm; also recorded: disrupt the super biofilm in a concentration dependent manner; also recorded: quite capable of both removing bacteria from and partially prevent reattachment of bacteria to surfaces in a concentration dependent manner
prevention of biofilm formation by pre-treatment of bacteria [2]: can prevent the formation of biofilms in a concentration dependent manner
prevention of biofilm formation by pre-treatment of bacteria ([2]; listed as cod trypsin composition): very effective in preventing bacterial biofilm formation
prevention of biofilm formation by pre-treatment of bacteria ([2]; listed as cod trypsins): very effective in preventing bacterial biofilm formation
lethality to the bacteria (bacteria): not lethal to the bacteria
